We go through 49 compounds from ChEMBL document CHEMBL3301451, “MMV Malaria Box gametocyte functional viability assay screening”.

Assay type in all cases: functional
What all share (parameters): concentration or dose not given beside the values

Assay [1] concerns Plasmodium falciparum. In words: MMV: P. falciparum NF54 functionally mature Stage V gametocytes were incubated for 24 hr in the presence of the test compounds. Gamete formation was then triggered by addition of 2uM xantheurenic acid and temperature decrease to ~20C. Male gamete exflagellation was recorded and analysed by automated microscopy after 20 min. All compounds were tested in 4 independent experiments and data presented here is the mean.

The subject of another assay is Plasmodium berghei. In words: MMV: P. berghei-infected blood was withdrawn from mice by cardiac pucture before being immediately added to ookinete culture medium containing test compounds. 26 hr later, GFP-positive ookinetes were identified and counted by automated microscopy. All compounds were tested in 4 independent experiments and data presented here is the mean.

In assay [2] the test system is Plasmodium falciparum. The experiment in a line: MMV: P. falciparum NF54 functionally mature Stage V gametocytes were incubated for 24 hr in the presence of the test compounds. Gamete formation was then triggered by addition of 2uM xantheurenic acid and temperature decrease to ~20C. Female gamete formation was recorded 24 hr later by automated microscopy detection of surface labelling of female gametes with a Cy3-conjugated antibody reactive to Pfs25. All compounds were tested in 4 independent experiments and data presented here is the mean. The following applies: NF54, 24 h.

For the compound `CCN1CCCC1CNc1[nH]cnc2c3cc(Cl)ccc3nc1-2` (configuration not stated), the inhibition in the assay on Plasmodium falciparum [1] is 18.2%; in the assay on Plasmodium berghei, -0.006896%; with Plasmodium falciparum [2] it was 3.48%.
For `Cc1cc(NC(=O)c2cccc(C(F)(F)F)c2)n(-c2nc(-c3ccc4c(c3)OCO4)cs2)n1`, in that order: 11.3%, -1.403% and 17.1%.
With `CN1CCN(c2ncnc3c2[nH]c2ccc(Cl)cc23)CC1`, the inhibition with Plasmodium falciparum [1] was -2.21%; with Plasmodium berghei, -3.248%; in the assay with Plasmodium falciparum [2] it was 6.75%.
The matching figures for `O=C(CCc1ccccc1)c1ccccc1OCC(O)CN1CCCCC1` (configuration not stated): 22.9%, -0.1506% and -34.8%.
The matching figures for `Cc1cc(Nc2ccc3ccccc3c2)n2ncnc2n1`: -4.18%, -3.995% and -8.79%.
`CN(C)CCNc1cc(-c2ccccc2)nc2ccccc12`: the inhibition is 2.52% with Plasmodium falciparum [1], -1.411% in the assay on Plasmodium berghei and -24.1% with Plasmodium falciparum [2].
The matching figures for `COc1cccc(O)c1CN1CCC2(CCCN(Cc3ccc(F)cc3)C2)C1` (configuration not stated): -5.07%, 0.1358% and -15.6%.
With `FC(F)(F)c1cccc(Nc2nc3ccccc3nc2Nc2cccc(C(F)(F)F)c2)c1`, the values for the inhibition in the assay on Plasmodium falciparum [1], with Plasmodium berghei and with Plasmodium falciparum [2] were 24.6%, -0.8978% and -14.6%, respectively.
The matching figures for `c1ccc(-c2ccc(-c3nc4ccccc4[nH]3)cc2)cc1`: 15.6%, -1.667% and -7.69%.
In the case of `COC(=O)c1ccc(C2C3=C(O)CC(c4ccc(F)cc4)CC3=Nc3ccccc3N2C(=O)c2ccccc2)cc1` (configuration not stated), the values for the inhibition with Plasmodium falciparum [1], in the assay with Plasmodium berghei and in the assay on Plasmodium falciparum [2] were -76.8%, -3.179% and -31.4%, respectively.
Take `COc1cccc(NC(=O)Cn2c(C)c(C#N)c3ccccc32)c1`: the inhibition in the assay on Plasmodium falciparum [1] was 21.9%; with Plasmodium berghei, -1.894%; with Plasmodium falciparum [2] it was -23.6%.
The matching figures for `O=C(NC1CCCCC1)C(c1cccs1)N(CCc1ccccc1)C(=O)c1ccco1` (configuration not stated): 6.52%, -4.107% and -15.1%.
For `CCC(=O)Nc1nnc(Cc2ccc(OC)c(OC)c2)s1`, in that order: 19.9%, -4.332% and -4.58%.
The matching figures for `Cl.c1ccc2c(NCCCCCCNc3c4c(nc5ccccc35)CCCC4)c3c(nc2c1)CCCC3`: 18.8%, -0.2313% and -9.36%.
`O=C(CCc1ccco1)NC1CCN(CC2(c3ccc(Cl)cc3)CCC2)CC1`: the figures for the inhibition in the assay with Plasmodium falciparum [1], in the assay on Plasmodium berghei and in the assay with Plasmodium falciparum [2] were 39.4%, 1.599% and -33.1%, respectively.
As to `O=C(NCCCN1CCC(N2CCCCC2)CC1)C1=Cc2cc(Br)ccc2OC1`, the inhibition with Plasmodium falciparum [1] is 8.14%; in the assay with Plasmodium berghei, -4.183%; with Plasmodium falciparum [2] it was 15%.
The matching figures for `Cc1ccnc(NC(c2cccc(OCc3ccccc3)c2)c2ccc3cccnc3c2O)c1` (configuration not stated): 11%, -0.9408% and -12.7%.
For the compound `CCN1CCN(c2cc(C)c3cc(NC(=O)c4ccc(OC)c(OC)c4)ccc3n2)CC1`, the inhibition with Plasmodium falciparum [1] is -3.72%; with Plasmodium berghei it was -2.902%; in the assay on Plasmodium falciparum [2], -8.68%.
For `COc1ccc(C(=O)Nc2nonc2-c2ccc(OC)c(OC)c2)cc1Cl`, in that order: 36.3%, 1.319% and -18.2%.
The matching figures for `COCCN(C(=O)Cc1cccs1)C(C(=O)NCc1ccc(OC)cc1)c1ccc(C(C)C)cc1` (configuration not stated): 9.73%, 0.1558% and -5.87%.
For `CN1CCN(c2c3c(c(C#N)c4nc5ccccc5n24)CCC3)CC1`, in that order: 16.1%, 0.2959% and -10.7%.
In the case of `COc1ccc2c(c1)OC(O)(C(F)(F)C(F)(F)F)CC2=O` (configuration not stated), the inhibition was -139% with Plasmodium falciparum [1], -0.6954% in the assay on Plasmodium berghei and -4.89% in the assay on Plasmodium falciparum [2].
For `FC(F)(F)c1cccc(CNC2CCN(CCc3ccccc3)CC2)c1`, in that order: -0.872%, 1.472% and -31.1%.
Turning to `O=C(c1ccccc1F)N(Cc1ccc(Cl)cc1)c1ccccn1`, the inhibition was 20.3% in the assay with Plasmodium falciparum [1], -2.284% with Plasmodium berghei and -28.6% in the assay on Plasmodium falciparum [2].
For the compound `COc1ccc(C2NCCc3c2[nH]c2ccccc32)cc1CN1CCN(c2ccc(F)cc2)CC1.Cl` (configuration not stated), the figures for the inhibition in the assay with Plasmodium falciparum [1], in the assay with Plasmodium berghei and in the assay on Plasmodium falciparum [2] were 5.86%, -1.071% and -18.1%, respectively.
For `COc1ccc(C(=O)Nc2ccc(Cl)cc2C(=O)Nc2ccncc2)cc1`, in that order: 14.4%, -4.155% and -19.7%.
For `O=C1c2ccc3c4c(ccc(c24)C(=O)N1CCCCO)C(=O)N(CCCCO)C3=O`, in that order: -2.41%, -0.9886% and -45.3%.
For `OC(Cn1nnc2ccccc21)Cn1c2ccc(Br)cc2c2cc(Br)ccc21` (configuration not stated), in that order: 33.4%, -0.4033% and -23.3%.
Regarding `CCOc1ccc(-n2cc(-c3ccccc3)c3c(SCc4cc(C)ccc4C)ncnc32)cc1`, the inhibition with Plasmodium falciparum [1] is 13%; with Plasmodium berghei, -4.1%; in the assay on Plasmodium falciparum [2], -11.5%.
Take `Cc1ccc(C)c(Cn2c(N3CCC(C(=O)NCc4cccs4)CC3)nc3ccccc32)c1`: the inhibition in the assay on Plasmodium falciparum [1] was -124%; in the assay on Plasmodium berghei it was -3.865%; in the assay with Plasmodium falciparum [2], 9.01%.
The matching figures for `CN(C)c1ccc(-c2nc3cc(N)ccc3[nH]2)cc1`: 12.2%, -2.982% and -7.9%.
With `CCOC(=O)c1cnc2ccc(Cl)cc2c1NCCCN(C)C`, the inhibition with Plasmodium falciparum [1] was -9.15%; in the assay with Plasmodium berghei, -2.955%; in the assay with Plasmodium falciparum [2] it was -11.1%.
For `O=C(Nc1ccc(C23CC4CC(CC(c5ccccc5)(C4)C2)C3)cc1)c1cccs1`, in that order: 18.1%, -2.527% and -23.5%.
The matching figures for `CCOC(=O)c1cnc2c(C)cccc2c1Nc1ccc(C(C)=O)cc1`: 13%, 1.277% and -9.63%.
The matching figures for `CNCCCNc1ccnc2cc(Cl)ccc12`: -17.2%, 0.238% and -3.53%.
Regarding `COc1ccccc1CNC(=O)CCn1c(=O)[nH]c2ccsc2c1=O`, the results for the inhibition with Plasmodium falciparum [1], in the assay on Plasmodium berghei and with Plasmodium falciparum [2] were 22.3%, -0.4809% and -26.3%, respectively.
Take `CCn1c(SCC(=O)Nc2cc(C(F)(F)F)ccc2Cl)nc2ccccc2c1=O`: the inhibition in the assay on Plasmodium falciparum [1] was 22.5%; in the assay with Plasmodium berghei, -2.806%; in the assay on Plasmodium falciparum [2], -19.5%.
As for `O=C(Nc1cccc(C(F)(F)F)c1)c1cc(Cl)ccc1O`, the inhibition in the assay on Plasmodium falciparum [1] is 24.9%; in the assay with Plasmodium berghei, -2.67%; in the assay on Plasmodium falciparum [2] it was -6.94%.
Consider `CCCCCCn1c(=N)n(CC(O)COc2cccc(C)c2)c2ccccc21.Cl` (configuration not stated), for which the inhibition in the assay on Plasmodium falciparum [1] was -52.7%; in the assay on Plasmodium berghei it was 1.158%; with Plasmodium falciparum [2], -17.6%.
Turning to `Cc1ccc2c(C)nc(Nc3nc(C)cc(-c4ccccc4)n3)nc2c1`, the inhibition in the assay on Plasmodium falciparum [1] was -11.5%; in the assay with Plasmodium berghei, -0.3138%; with Plasmodium falciparum [2] it was -39.7%.
Take `COc1ccc2c(c1OC)C(=O)N1c3ccccc3N=C(c3ccc(C)cc3)CC21` (configuration not stated): the inhibition in the assay with Plasmodium falciparum [1] is 8.91%; with Plasmodium berghei, -1.051%; in the assay on Plasmodium falciparum [2] it was -8.58%.
The matching figures for `COc1ccccc1N1CCN(C(CNS(=O)(=O)c2ccc(Cl)cc2)c2cccnc2)CC1` (configuration not stated): 3.66%, -1.627% and -39.2%.
On to `COc1cc(OC)cc(N2C(=O)N(Cc3ccc(C(C)(C)C)cc3)c3ccccc3S2(=O)=O)c1`, for which the inhibition was 8.32% in the assay with Plasmodium falciparum [1], -1.934% in the assay with Plasmodium berghei and -7.89% in the assay on Plasmodium falciparum [2].
`CCCCOc1ccc(C(=O)Nc2cc(C)on2)cc1`: the values for the inhibition in the assay with Plasmodium falciparum [1], in the assay with Plasmodium berghei and with Plasmodium falciparum [2] were 47.5%, 1.333% and -26.5%, respectively.
For `CC1CCCCN1CCCNC(=O)c1ccc2c(c1)sc1nc(-c3ccc(F)cc3)cn12` (configuration not stated), in that order: -15.9%, 0.9156% and -12.6%.
The matching figures for `CCOC(=O)c1cnc2c(C)cc(C)cc2c1Nc1ccc(OC)c(OC)c1`: 25.9%, 1.422% and -14.2%.
For `CCCn1c(=N)c(C(=O)NC2CCCCC2)cc2c(=O)n3cccc(C)c3nc21`, in that order: 22.1%, -1.292% and -11.9%.
Regarding `CCN1CCN(c2c(C(=O)c3ccccc3)cnc3cc(OC)c(OC)cc23)CC1`, the inhibition was -41.4% with Plasmodium falciparum [1], -4.456% in the assay with Plasmodium berghei and -6.16% in the assay with Plasmodium falciparum [2].
For `CCOC(=O)c1c[nH]c2c(CC)cccc2c1=O`, in that order: 21.5%, -1.306% and 8.74%.

A word on the inhibition: it is the relative decrease from the control value, in per cent.
